We go through six compounds from patent US8409833B2 (Hokko Chemical Industry Co., Ltd., priority 2003, dated 2013).

The subject of this assay is NAD^+-independent myo-inositol 2-dehydrogenase. Put plainly: NAD^+-independent myo-inositol 2-dehydrogenase activity (oxidized DCIP, absorbance at 600 nm): substrate specificity, Km, heavy metal inhibition. The following applies: for Km: enzyme derived from Acetobacter sp. AB10253, sugar concentration varied; for reaction of the enzyme with the sugar: sugar at a final concentration of 50 mM.

Procedure: The enzyme activity of each fraction was measured by a standard method: that is, the change in absorbance at 600 nm of 1 ml of a solution containing 50 μl of the protein solution, 100 mM phosphate buffer (pH 5.0), 5 mg of myo-inositol, and 0.4 mg of 2,4-dichloroindophenol (oxidized DCIP) was calculated into a reaction rate, and an activity to oxidize 1 μmol of myo-inositol per minute was defined as one unit.
For measurement of the optimum pH, the enzyme activity was measured while changing a buffer and pH value. As the buffer, there were used 100 mM phosphate buffer (pH 3 to 8), 100 mM Tris buffer (pH 7 to 8), and 100 mM carbonate buffer (pH 8 to 11).
The substrate specificity of the target enzyme was determined by measuring the enzyme activity in a solution containing various sugars instead of myo-inositol at a final concentration of 50 mM.

With `OC1C(O)C(O)C(O)C(O)C1O` [D-chiro-inositol], the Km was 8.8 mM.
As to `[Sn+2]` [Sn^2+ ion, reference compound], where the note is “1 mM ion, 100 mM phosphate buffer (pH 5.0)”, the “enzyme activity relative to the activity in the absence of the ion” value was at most 1%.
With `OC1C(O)C(O)C(O)C(O)C1O` (stereo not drawn) [allo-inositol], the “reaction of the enzyme with the sugar” value is “not to react”.
For `OC1C(O)C(O)C(O)C(O)C1O` (stereo not drawn) [muco-inositol], the Km was 14.5 mM.
The same measure, in the same setting: next, `OC1C(O)[C@H](O)[C@H](O)C(O)[C@@H]1O` (stereo partly drawn) [myo-inositol]: 20 mM.
In the case of `OC1C(O)[C@H](O)[C@H](O)C(O)[C@H]1O` (stereo partly drawn) [scyllo-inositol], the “reaction of the enzyme with the sugar” value was “not to react”.
